We go through 2 compounds from PMC12582016, “Cupin‐Type Dimethylsulfoniopropionate Lyase from Pelagibacter ubique (DddK Pu ) Catalyzes Aza‐Michael Addition of Primary and Secondary Amines to Acrylic Acid” (Angewandte Chemie (International Ed. in English), 2025).

Test [1] has as its target T1, DddK Pu (dimethylsulfoniopropionate (DMSP) lyase from Pelagibacter ubique HTCC1062) (Candidatus Pelagibacter communis, UniProt Q4FNM4).
T1 construct: gene SAR11_0394; His-tagged wild type, tag kept, recombinant in E. coli, purified; metals as isolated mainly Zn, Fe, Ni
T1 sequence (Q4FNM4 1-130): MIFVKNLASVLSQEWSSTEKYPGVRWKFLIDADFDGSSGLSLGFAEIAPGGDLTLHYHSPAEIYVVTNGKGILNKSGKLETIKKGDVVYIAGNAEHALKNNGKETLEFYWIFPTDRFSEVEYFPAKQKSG
The test can be described thus: HPLC end-point assay of acrylate formation. The following applies: 50 mM triethanolamine pH 8.0, 25 °C; enzyme as isolated (mainly Zn, Fe, Ni). The test is classed as biochemical.

Test [2] deals with T1, DddK Pu (dimethylsulfoniopropionate (DMSP) lyase from Pelagibacter ubique HTCC1062). Briefly: end-point assay of acrylate consumption (aza-Michael addition). It is filed as biochemical. The following applies: co-substrate sodium acrylate 100 mM; pyrrolidine 100 mM; 50 mM triethanolamine pH 8.0, 25 °C; promiscuous activity.

With `C[S+](C)CCC(=O)[O-]` [compound 1, DMSP], in test [1], the “HPLC end-point assay of acrylate formation” value is listed as “The specific activity of DddK Pu was determined by the endpoint method”.
Consider `C1CCNC1` [6c, pyrrolidine], for which the “end-point assay of acrylate consumption (aza-Michael addition)” value in test [2] is recorded as “Pyrrolidine (6c) was by far the most active secondary amine”.
